According to the Kinase Knowledgebase extract (Sharma et al. 2016):

target: PIK3CG (human) (UniProt P48736); assay: Assessment of PIK3CG Kinase Activity; details: not given
Sequence (P48736 whole entry, looked up): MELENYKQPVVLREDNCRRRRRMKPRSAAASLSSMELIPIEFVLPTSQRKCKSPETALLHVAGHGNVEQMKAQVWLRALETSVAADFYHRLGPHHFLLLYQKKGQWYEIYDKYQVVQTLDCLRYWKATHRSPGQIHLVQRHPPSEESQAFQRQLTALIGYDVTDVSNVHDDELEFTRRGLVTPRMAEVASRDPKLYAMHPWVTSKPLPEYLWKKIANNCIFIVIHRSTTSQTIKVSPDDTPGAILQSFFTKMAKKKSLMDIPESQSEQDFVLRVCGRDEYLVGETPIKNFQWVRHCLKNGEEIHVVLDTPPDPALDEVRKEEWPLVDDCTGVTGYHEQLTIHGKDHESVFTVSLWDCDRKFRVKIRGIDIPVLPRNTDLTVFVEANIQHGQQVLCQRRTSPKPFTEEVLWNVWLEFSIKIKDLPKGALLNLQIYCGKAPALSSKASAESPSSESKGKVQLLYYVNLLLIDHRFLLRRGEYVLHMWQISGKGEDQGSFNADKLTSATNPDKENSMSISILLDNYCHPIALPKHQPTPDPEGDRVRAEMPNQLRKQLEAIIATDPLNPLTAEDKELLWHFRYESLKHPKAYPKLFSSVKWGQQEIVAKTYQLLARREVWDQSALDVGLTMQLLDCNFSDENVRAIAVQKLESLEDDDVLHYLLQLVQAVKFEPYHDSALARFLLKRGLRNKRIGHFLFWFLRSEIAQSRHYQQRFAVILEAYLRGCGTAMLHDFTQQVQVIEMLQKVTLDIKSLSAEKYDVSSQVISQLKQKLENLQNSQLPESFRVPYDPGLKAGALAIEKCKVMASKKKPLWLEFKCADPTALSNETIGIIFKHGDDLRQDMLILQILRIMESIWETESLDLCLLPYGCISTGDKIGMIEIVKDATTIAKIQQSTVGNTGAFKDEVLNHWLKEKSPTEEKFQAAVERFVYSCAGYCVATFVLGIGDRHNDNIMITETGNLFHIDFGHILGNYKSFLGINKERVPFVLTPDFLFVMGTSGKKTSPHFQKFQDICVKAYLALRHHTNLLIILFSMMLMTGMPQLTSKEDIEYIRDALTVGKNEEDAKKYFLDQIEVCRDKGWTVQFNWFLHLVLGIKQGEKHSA

| Structure (SMILES) | IC50 [nM] |
| --- | --- |
| Nc1nc2ccc(-c3cncc(NS(=O)(=O)c4cccc5ccccc45)c3)cn2n1 | 7.94 |
| CC(=O)Nc1nc2ccc(-c3cccc(-c4nc(C)no4)c3)cn2n1 | > 20000 |

target: EGFR (UniProt P00533); assay: not given; details: not given
Sequence (P00533 whole entry, looked up): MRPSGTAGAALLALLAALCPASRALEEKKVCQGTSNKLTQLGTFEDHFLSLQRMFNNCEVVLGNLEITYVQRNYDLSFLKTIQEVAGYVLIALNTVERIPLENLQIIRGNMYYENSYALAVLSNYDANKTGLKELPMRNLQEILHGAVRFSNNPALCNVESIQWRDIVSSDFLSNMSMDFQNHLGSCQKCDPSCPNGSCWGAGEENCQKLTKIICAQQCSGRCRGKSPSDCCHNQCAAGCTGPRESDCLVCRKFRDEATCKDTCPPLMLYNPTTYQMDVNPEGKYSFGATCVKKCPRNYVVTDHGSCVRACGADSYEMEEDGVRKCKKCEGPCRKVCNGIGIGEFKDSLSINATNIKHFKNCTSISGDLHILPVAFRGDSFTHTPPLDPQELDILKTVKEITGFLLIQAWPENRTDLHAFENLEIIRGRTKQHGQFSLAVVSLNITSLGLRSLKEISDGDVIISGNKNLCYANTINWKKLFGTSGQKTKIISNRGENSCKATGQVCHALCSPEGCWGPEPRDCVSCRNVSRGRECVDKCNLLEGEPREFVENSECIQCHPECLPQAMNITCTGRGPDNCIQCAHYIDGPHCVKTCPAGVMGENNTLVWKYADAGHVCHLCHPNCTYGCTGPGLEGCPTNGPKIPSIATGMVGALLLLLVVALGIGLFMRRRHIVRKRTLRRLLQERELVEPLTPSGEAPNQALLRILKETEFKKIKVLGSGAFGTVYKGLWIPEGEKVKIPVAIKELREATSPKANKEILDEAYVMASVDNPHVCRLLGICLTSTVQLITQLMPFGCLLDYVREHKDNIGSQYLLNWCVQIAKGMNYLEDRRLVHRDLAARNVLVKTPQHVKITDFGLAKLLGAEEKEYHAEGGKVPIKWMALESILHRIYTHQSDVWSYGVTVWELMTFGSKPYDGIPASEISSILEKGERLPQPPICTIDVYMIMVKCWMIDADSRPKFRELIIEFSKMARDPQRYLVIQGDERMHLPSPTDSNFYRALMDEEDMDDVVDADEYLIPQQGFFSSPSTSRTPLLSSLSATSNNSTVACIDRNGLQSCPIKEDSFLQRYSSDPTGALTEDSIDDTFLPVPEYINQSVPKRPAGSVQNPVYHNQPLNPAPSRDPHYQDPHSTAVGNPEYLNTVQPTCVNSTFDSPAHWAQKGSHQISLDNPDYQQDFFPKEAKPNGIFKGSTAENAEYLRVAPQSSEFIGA

| Structure (SMILES) | IC50 [nM] |
| --- | --- |
| CC1=CCC[C@H]2[C@](C)(CC3=C(N[C@H](C(=O)O)[C@@H](C)O)C(=O)C=C(N[C@H](C(=O)O)[C@@H](C)O)C3=O)[C@@H](C)CC[C@]12C | 200000 |
| CC1=CCC[C@H]2[C@](C)(CC3=C(N[C@@H](CO)C(=O)O)C(=O)C=C(N[C@@H](CO)C(=O)O)C3=O)[C@@H](C)CC[C@]12C | > 400000 |
| CC1=CCC[C@H]2[C@](C)(CC3=C(O)C(=O)C=C(N[C@H](C(=O)O)[C@@H](C)O)C3=O)[C@@H](C)CC[C@]12C | > 400000 |
| CC1=CCC[C@H]2[C@](C)(CC3=C(O)C(=O)C=C(N[C@@H](CO)C(=O)O)C3=O)[C@@H](C)CC[C@]12C | 170000 |
| CC1=CCC[C@H]2[C@](C)(CC3=C(O)C(=O)C=C(N[C@@H](C(=O)O)[C@@H](C)O)C3=O)[C@@H](C)CC[C@]12C | > 400000 |
| CC1=CCC[C@H]2[C@](C)(CC3=C(O)C(=O)C=C(N[C@H](CO)C(=O)O)C3=O)[C@@H](C)CC[C@]12C | > 400000 |
| CC1=CCC[C@H]2[C@](C)(CC3=C(O)C(=O)C=C(N[C@@H](C(=O)O)C(C)C)C3=O)[C@@H](C)CC[C@]12C | 200000 |
| CC1=CCC[C@H]2[C@](C)(CC3=C(O)C(=O)C=C(NCC(=O)O)C3=O)[C@@H](C)CC[C@]12C | > 400000 |
| CC1=CCC[C@H]2[C@](C)(CC3=C(O)C(=O)C=C(N[C@H](C(=O)O)C(C)C)C3=O)[C@@H](C)CC[C@]12C | 250000 |

target: EGFR (human) (UniProt P00533); assay: not given; details: not given
Sequence (P00533 whole entry, looked up): as above

| Structure (SMILES) | IC50 [nM] |
| --- | --- |
| COc1ccc(S(=O)(=O)Nc2ncnc3cc(OC)c(OC)cc23)cc1 | ≤ 1000 |
| COc1cc2ncnc(NS(=O)(=O)c3ccccc3C#N)c2cc1OC | ≤ 1000 |
| COc1cc2ncnc(NS(=O)(=O)c3ccccc3I)c2cc1OC | ≤ 1000 |
| COc1cc2ncnc(NS(=O)(=O)c3ccccc3Br)c2cc1OC | ≤ 1000 |
| COc1cc2ncnc(NS(=O)(=O)c3ccc(Cl)cc3)c2cc1OC | ≤ 1000 |
| COc1cc2ncnc(NS(=O)(=O)c3ccc(Br)cc3)c2cc1OC | ≤ 1000 |
| COc1cc2ncnc(NS(=O)(=O)c3ccc(C)cc3)c2cc1OC | ≤ 1000 |
| COc1cc2ncnc(NS(=O)(=O)c3cccc(Cl)c3)c2cc1OC | ≤ 1000 |
| COc1cc2ncnc(NS(=O)(=O)c3ccccc3Cl)c2cc1OC | ≤ 1000 |

target: MAPK14 (UniProt Q16539); assay: p38 Inhibition; details: not given
Sequence (Q16539 whole entry, looked up): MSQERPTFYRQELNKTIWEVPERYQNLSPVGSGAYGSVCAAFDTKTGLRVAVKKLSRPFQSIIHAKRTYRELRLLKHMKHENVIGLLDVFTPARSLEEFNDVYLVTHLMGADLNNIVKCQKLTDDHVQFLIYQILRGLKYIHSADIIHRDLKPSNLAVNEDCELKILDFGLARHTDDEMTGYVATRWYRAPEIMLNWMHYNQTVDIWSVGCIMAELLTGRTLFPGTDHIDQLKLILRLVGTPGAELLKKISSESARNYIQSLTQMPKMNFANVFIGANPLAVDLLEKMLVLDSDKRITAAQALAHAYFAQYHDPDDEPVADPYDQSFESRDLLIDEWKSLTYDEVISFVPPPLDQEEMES

| Structure (SMILES) | IC50 [nM] |
| --- | --- |
| O=c1c(-c2ccncc2)c(-c2ccc(F)cc2)[nH]n1-c1ccc(Cl)cc1 | 35 |
| Cc1cc(-c2c(-c3ccc(F)cc3)ncn2CCCN2CCOCC2)cc(C)n1 | > 17000 |
| Cc1cc(-c2c(-c3ccc(F)cc3)ncn2CCCN2CCOCC2)nc(N)n1 | > 17000 |
| O=C(CCCNc1ncc(C(F)(F)F)cc1Cl)NNS(=O)(=O)c1ccc(CNC(=O)c2cccc(O)c2)s1 | > 30000 |
| O=C(CCCNc1ncc(C(F)(F)F)cc1Cl)NNS(=O)(=O)c1ccc(CNC(=O)c2cccc([N+](=O)[O-])c2)s1 | > 30000 |
| O=C(CNS(=O)(=O)c1ccc(CNC(=O)c2ccc(Cl)cc2)s1)Nc1cccc(S(=O)(=O)C(F)(F)F)c1 | > 30000 |

same assay, conditions: concentration not given here

| Structure (SMILES) | inhibition [%] |
| --- | --- |
| O=c1c(-c2ccc(F)cc2)c(-c2ccncc2)[nH]n1-c1ccc(Cl)cc1 | 43 |
| Cc1[nH]c(=O)c2c(ccc3nc(Nc4c(Cl)cccc4Cl)[nH]c32)c1C | 0 |

target: PIK3CB;PIK3CG;PIK3CD;PIK3CA (human) (UniProt P48736); assay: Inhibition of PIK3 Kinase Activity; details: not given

| Structure (SMILES) | IC50 [nM] |
| --- | --- |
| CC(C)C(=O)N1CC=C(c2cc(N3CCOCC3)nc(-c3cccc(CO)c3)n2)CC1 | 1000 |
| O=C(C1CCN(c2cc(N3CCOCC3)nc(-c3cccc(CO)c3)n2)CC1)N1CCOCC1 | 1500 |
| O=C(N1CC=C(c2cc(N3CCOCC3)nc(-c3cccc(CO)c3)n2)CC1)N1CCNCC1 | 500 |
| O=C(NC1CCNCC1)C1CCN(c2cc(N3CCOCC3)nc(-c3cccc(CO)c3)n2)CC1 | 1000 |
| O=C(NCc1ccncc1)C1CCN(c2cc(N3CCOCC3)nc(-c3cccc(CO)c3)n2)CC1 | 1000 |
| CS(=O)(=O)N1CC=C(c2cc(N3CCOCC3)nc(-c3cccc(CO)c3)n2)CC1 | 500 |
| O=C(CCc1cccnc1)N1CCN(c2cc(N3CCOCC3)nc(-c3cccc(CO)c3)n2)CC1 | 500 |
| O=C(C1COCCN1)N1CC=C(c2cc(N3CCOCC3)nc(-c3cccc(CO)c3)n2)CC1 (stereo unspecified) | 1000 |
| O=C(C1CNCCO1)N1CCN(c2cc(N3CCOCC3)nc(-c3cccc(CO)c3)n2)CC1 (stereo unspecified) | 1000 |
| Cn1ccnc1C(=O)N1CCN(c2cc(N3CCOCC3)nc(-c3cccc(CO)c3)n2)CC1 | 500 |
| CC(=O)N1CCN(c2cc(N3CCOCC3)nc(-c3cccc(CO)c3)n2)CC1 | 300 |

target: MAPK14 (murine); assay: Inhibition of MAPK14 Kinase Activity; details: not given

| Structure (SMILES) | IC50 [nM] |
| --- | --- |
| O=c1ccn2cc(Sc3ccc(F)cc3F)ccc2c1-c1c(F)cccc1F | 320 |
| O=c1ccn2cc(Cc3ccc(F)cc3F)ccc2c1-c1c(F)cccc1F | 93 |
| Cc1cc(OCCCN2CCOCC2)cc(C)c1N1C(=O)NCc2cc(NS(=O)(=O)c3ccc(F)c(Cl)c3)ccc21 | 14 |
| CCc1ccc(C(=O)N2CCCC2)cc1-c1c(=O)ccn2nc(Oc3ccc(F)cc3F)ccc12 | 59 |
| O=C1NCc2cc(NS(=O)(=O)c3cc(Cl)ccc3Cl)ccc2N1c1c(Cl)cccc1Cl | 100 |
| O=c1ccn2nc(NCc3ccc(F)cc3F)ccc2c1-c1c(F)cccc1F | 710 |
| COc1ccc(CCN2CCN(C)CC2)cc1-c1n[nH]c2nc(Nc3ccc(F)cc3F)ncc12 | 14 |
| Fc1ccc(Nc2ccc3c(-c4ccccc4Cl)ncnc3n2)c(F)c1 | 5800 |
| COc1ccc(C(=O)N2CCCC2)cc1-c1c(=O)ccn2nc(Oc3ccc(F)cc3F)ccc12 | 22 |
| COc1ccc(CCN(C)C)cc1-c1n[nH]c2nc(Nc3ccc(F)cc3F)ncc12 | 11 |

target: PIK3CD (Human) (UniProt O00329); assay: Assessment of PIK3CD Kinase Activity; details: not given
Sequence (O00329 whole entry, looked up): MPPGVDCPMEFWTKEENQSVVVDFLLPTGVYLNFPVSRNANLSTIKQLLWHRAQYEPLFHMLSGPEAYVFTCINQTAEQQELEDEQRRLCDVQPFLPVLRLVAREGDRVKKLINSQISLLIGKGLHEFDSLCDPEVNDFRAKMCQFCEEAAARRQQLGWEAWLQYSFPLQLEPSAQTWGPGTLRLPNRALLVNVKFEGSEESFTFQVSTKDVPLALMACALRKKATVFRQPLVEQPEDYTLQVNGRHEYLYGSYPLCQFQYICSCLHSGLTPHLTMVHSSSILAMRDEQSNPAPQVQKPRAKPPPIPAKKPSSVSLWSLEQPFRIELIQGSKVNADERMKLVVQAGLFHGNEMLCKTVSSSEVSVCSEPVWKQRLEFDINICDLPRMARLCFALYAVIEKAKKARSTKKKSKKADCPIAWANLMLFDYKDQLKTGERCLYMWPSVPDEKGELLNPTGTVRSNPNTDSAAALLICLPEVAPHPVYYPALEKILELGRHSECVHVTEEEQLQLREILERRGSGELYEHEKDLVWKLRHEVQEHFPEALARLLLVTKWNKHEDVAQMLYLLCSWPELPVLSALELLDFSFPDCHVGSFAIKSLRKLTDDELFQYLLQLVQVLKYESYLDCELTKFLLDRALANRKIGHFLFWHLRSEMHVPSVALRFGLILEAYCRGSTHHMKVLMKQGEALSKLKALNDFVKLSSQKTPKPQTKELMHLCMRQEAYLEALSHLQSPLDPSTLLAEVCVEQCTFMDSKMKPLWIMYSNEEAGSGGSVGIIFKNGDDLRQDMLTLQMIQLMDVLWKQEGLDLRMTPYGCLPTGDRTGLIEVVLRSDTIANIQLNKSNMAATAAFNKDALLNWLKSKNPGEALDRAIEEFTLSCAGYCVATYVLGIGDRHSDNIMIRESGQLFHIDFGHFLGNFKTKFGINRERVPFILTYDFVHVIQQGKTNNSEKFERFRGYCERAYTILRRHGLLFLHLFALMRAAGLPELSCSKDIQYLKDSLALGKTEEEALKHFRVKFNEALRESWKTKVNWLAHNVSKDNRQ

| Structure (SMILES) | IC50 [nM] |
| --- | --- |
| Nc1nc2ccc(-c3cncc(NS(=O)(=O)c4cccc5ccccc45)c3)cn2n1 | 126 |
| CC(=O)Nc1nc2ccc(-c3cccc(-c4nc(C)no4)c3)cn2n1 | > 100000 |
